Read-outs that look alike come from different tables or passages of the source.
Experiments:
[1] = pKa of the lipid by TNS fluorescence; format: physicochemical
Description: Unless explicitly indicated otherwise, all pKas referred to herein are measured in water at standard temperature and pressure. Also, unless otherwise indicated, all references to pKa are references to pKa measured using the following technique.
2 mM solution of lipid in ethanol are prepared by weighing the lipid and then dissolving in ethanol.
This is done with all eight buffers.
Priority: Column priority • Carriage Speed: Normal • Auto read: Off
The normalized fluorescence intensity vs. pH chart is then plotted in the Microsoft Excel software. The eight points are connected with a smooth line.
The pKa determined using this method is precise to about 0.2 pKa units.

Factor VII = Factor VII activity assay, in vivo liver delivery of FVII siRNA LNP; design: species or system mouse; details: for FVII inhib %: ~48 h
Description: Female CD-1 mice are received from Charles River Labs and maintained on standard lab chow and water ad libitum. The animals weigh approximately 25 grams at time of dosing. Formulated siRNA is administered as a single dose at various dose levels intravenously via the lateral tail vein calculated on a (mg siRNAs/kg) basis according to individual animal weights (10 ml/kg injection volume).
Formulated siRNAs are made up of double stranded siRNA sequences specific to a target mRNA sequence, and are in the form of lipid nucleotid particles (LNPs) containing cationic lipids, stealth lipids and neutral lipids, as provided in the Examples below. The siRNA construct for use in targeting the liver is specific to Factor VII. […] FVII siRNA duplex sequence
Formulated Factor VII siRNA is administered as a single dose at various dose levels intravenously via the lateral tail vein calculated on a mg siRNAs/kg basis according to individual animal weights (10 ml/kg injection volume). Approximately 48 h after injection, the mice are euthanized by CO2 inhalation followed by exsanguinations through the vena cava. […] In some cases, small pieces (˜50 mg) of liver are collected and snap frozen in liquid nitrogen for follow up mRNA quantitation.
An assay standard curve is prepared using pooled plasma aliquots from the vehicle control animals.

[2] = Particle size and PDI by dynamic light scattering (Malvern Zetasizer); format: physicochemical
Description: Unless indicated otherwise, all sizes referred to herein are the average sizes (diameters) of the fully formed nanoparticle, as measured by dynamic light scattering on a Malvern Zetasizer. The nanoparticle sample is diluted in phosphate buffered saline (PBS) so that the count rate is approximately 200-400 kcts. The data is presented as a weighted average of the intensity measure.
The acronym PDI stands for polydispersity index. Unless indicated otherwise, all PDIs referred to herein are the PDI of the fully formed nanoparticle, as measured by dynamic light scattering on a Malvern Zetasizer. The nanoparticle sample is diluted in phosphate buffered saline (PBS) so that the count rate is approximately 200-400 kcts.

[3] = dose 3 mg/kg siRNA i.v., lipid/DSPC/CHOL/AVANTI 880150P 50/28/18/4, N/P 3.43
[4] = dose 3 mg/kg siRNA i.v., lipid/no neutral lipid/CHOL/AVANTI 880150P 50/0/46/4, N/P 3.43
[5] = lipid/DSPC/CHOL/AVANTI 880150P 50/28/18/4, N/P 3.43
[6] = lipid/no neutral lipid/CHOL/AVANTI 880150P 50/0/46/4, N/P 3.43

SMILES: CCCCC/C=C\C/C=C\CCCCCCCCOCC(CN1CCCCC1)OCCCCO[C@H]1CC[C@@]2(C)C(=CCC3C2CC[C@@]2(C)C3CC[C@@H]2[C@H](C)CCCC(C)C)C1 (stereo partly drawn) [E0027]
- pKa [1]: 5.71
- pKa ([1]; pKa): 5.7
- FVII inhib % (Factor VII; [3]): 36.3%
- FVII inhib % (Factor VII; [4]): 30.3%
- in vivo Factor VII inhibition (Factor VII; formulation containing the cationic lipid, RNAi construct specific to Factor VII, liver): 30.3%
- Final size (nm) [2, 5]: 146 nm
- PDI [2, 5]: 0.311
- Final size (nm) [2, 6]: 65 nm
- PDI [2, 6]: 0.15

SMILES: CCCCC/C=C\C/C=C\CCCCCCCCOCC(CN1CCOCC1)OCCCCO[C@H]1CC[C@@]2(C)C(=CCC3C2CC[C@@]2(C)C3CC[C@@H]2[C@H](C)CCCC(C)C)C1 (stereo partly drawn) [E0028]
- pKa ([1]; pKa): 4.8
- FVII inhib % (Factor VII; [3]): 12.5%
- FVII inhib % (Factor VII; [4]): 38.7%
- Final size (nm) [2, 5]: 129 nm
- PDI [2, 5]: 0.216
- Final size (nm) [2, 6]: 68 nm
- PDI [2, 6]: 0.125

SMILES: CCCCC/C=C\C/C=C\CCCCCCCCOCC(CN1Cc2ccccc2C1)OCCOCCO[C@H]1CC[C@@]2(C)C(=CCC3C2CC[C@@]2(C)C3CC[C@@H]2[C@H](C)CCCC(C)C)C1 (stereo partly drawn) [E0029]
- pKa ([1]; pKa): 4.95
- FVII inhib % (Factor VII; [3]): 12.4%
- FVII inhib % (Factor VII; [4]): −19.1%
- Final size (nm) [2, 5]: 137 nm
- PDI [2, 5]: 0.04
- Final size (nm) [2, 6]: 113 nm
- PDI [2, 6]: 0.08

SMILES: CCCCC/C=C\C/C=C\CCCCCCCCOCC(CN1CCOCCOCCOCC1)OCCOCCO[C@H]1CC[C@@]2(C)C(=CC[C@H]3[C@@H]4CC[C@H]([C@H](C)CCCC(C)C)[C@@]4(C)CC[C@@H]32)C1 (stereo partly drawn) [E0030]
- pKa ([1]; pKa): 5.38
- FVII inhib % (Factor VII; [4]): 12.4%
- Final size (nm) [2, 6]: 155 nm
- PDI [2, 6]: 0.08

SMILES: CCCCC/C=C\C/C=C\CCCCCCCCOCC(CN1CCSCC1)OCCOCCO[C@H]1CC[C@@]2(C)C(=CCC3C2CC[C@@]2(C)C3CC[C@@H]2[C@H](C)CCCC(C)C)C1 (stereo partly drawn) [E0031]
- pKa ([1]; pKa): 4.8
- FVII inhib % (Factor VII; [3]): 36.7%
- FVII inhib % (Factor VII; [4]): 27.1%
- Final size (nm) [2, 5]: 108 nm
- PDI [2, 5]: 0.23
- Final size (nm) [2, 6]: 65 nm
- PDI [2, 6]: 0.11

SMILES: CCCCC/C=C\C/C=C\CCCCCCCCOCC(CN1CC=CC1)OCCOCCO[C@H]1CC[C@@]2(C)C(=CCC3C2CC[C@@]2(C)C3CC[C@@H]2[C@H](C)CCCC(C)C)C1 (stereo partly drawn) [E0032]
- pKa ([1]; pKa): 6.8
- FVII inhib % (Factor VII; [3]): 64.5%
- FVII inhib % (Factor VII; [4]): 85.5%
- Final size (nm) [2, 5]: 87 nm
- PDI [2, 5]: 0.18
- Final size (nm) [2, 6]: 63 nm
- PDI [2, 6]: 0.21

SMILES: CCCCC/C=C\C/C=C\CCCCCCCCOCC(CN1CCC(OC)C1)OCCCCO[C@H]1CC[C@@]2(C)C(=CCC3C2CC[C@@]2(C)C3CC[C@@H]2[C@H](C)CCCC(C)C)C1 (stereo partly drawn) [E0035]
- pKa ([1]; pKa): 5.93
- FVII inhib % (Factor VII; [3]): 22%
- FVII inhib % (Factor VII; [4]): 66.8%
- Final size (nm) [2, 5]: 103 nm
- PDI [2, 5]: 0.2
- Final size (nm) [2, 6]: 79 nm
- PDI [2, 6]: 0.21

SMILES: CCCCC/C=C\C/C=C\CCCCCCCCOCC(CN1CCCCC1)OC(=O)CCC(=O)O[C@H]1CC[C@@]2(C)C(=CCC3C2CC[C@@]2(C)C3CC[C@@H]2[C@H](C)CCCC(C)C)C1 (stereo partly drawn) [E0036]
- pKa ([1]; pKa): 5.74
- FVII inhib % (Factor VII; [3]): −47%
- FVII inhib % (Factor VII; [4]): −23.1%
- Final size (nm) [2, 5]: 122 nm
- PDI [2, 5]: 0.12
- Final size (nm) [2, 6]: 76 nm
- PDI [2, 6]: 0.24

SMILES: CCCCC/C=C\C/C=C\CCCCCCCCOCC(CN1CCC(N(C)C)C1)OCCOCCO[C@H]1CC[C@@]2(C)C(=CC[C@H]3[C@@H]4CC[C@H]([C@H](C)CCCC(C)C)[C@@]4(C)CC[C@@H]32)C1 (stereo partly drawn) [E0039]
- pKa ([1]; pKa): 5.88
- FVII inhib % (Factor VII; [3]): −6.7%
- FVII inhib % (Factor VII; [4]): −5.4%
- Final size (nm) [2, 5]: 113 nm
- PDI [2, 5]: 0.15
- Final size (nm) [2, 6]: 94 nm
- PDI [2, 6]: 0.06

SMILES: CCCCC/C=C\C/C=C\CCCCCCCCOCC(CN1CC2CCCN(C(=O)OC(C)(C)C)C2C1)OCCOCCO[C@H]1CC[C@@]2(C)C(=CCC3C2CC[C@@]2(C)C3CC[C@@H]2[C@H](C)CCCC(C)C)C1 (stereo partly drawn) [E0041]
- pKa ([1]; pKa): 4.8
- FVII inhib % (Factor VII; [3]): −7.4%
- FVII inhib % (Factor VII; [4]): 17.6%
- Final size (nm) [2, 5]: 95 nm
- PDI [2, 5]: 0.37
- Final size (nm) [2, 6]: 93 nm
- PDI [2, 6]: 0.21

SMILES: CCCCC/C=C\C/C=C\CCCCCCCCOCC(CN1CCC(O[Si](C)(C)C(C)(C)C)C1)OCCOCCO[C@H]1CC[C@@]2(C)C(=CC[C@H]3[C@@H]4CC[C@H]([C@H](C)CCCC(C)C)[C@@]4(C)CC[C@@H]32)C1 (stereo partly drawn) [E0042]
- pKa ([1]; aqueous buffer series with fluorescent probe TNS, probe TNS, pKa of the cationic lipid, read-out: pKa): 6.7
- FVII inhib % (Factor VII; [3]): 49.1%
- FVII inhib % (Factor VII; [4]): 84.5%
- Final size (nm) [2, 5]: 83 nm
- PDI [2, 5]: 0.11
- Final size (nm) [2, 6]: 73 nm
- PDI [2, 6]: 0.19

SMILES: CCCCC/C=C\C/C=C\CCCCCCCCOC[C@H](CN1CCCCC1)OCCOCCO[C@H]1CC[C@@]2(C)C(=CCC3C2CC[C@@]2(C)C3CC[C@@H]2[C@H](C)CCCC(C)C)C1 (stereo partly drawn) [E0043]
- pKa ([1]; pKa): 6.33
- FVII inhib % (Factor VII; [3]): 95.7%
- FVII inhib % (Factor VII; [4]): −11.7%
- Final size (nm) [2, 5]: 110 nm
- PDI [2, 5]: 0.24
- Final size (nm) [2, 6]: 76 nm
- PDI [2, 6]: 0.15

SMILES: CCCCC/C=C\C/C=C\CCCCCCCCOCC(CN1C(C)CCC1C)OCCOCCO[C@H]1CC[C@@]2(C)C(=CCC3C2CC[C@@]2(C)C3CC[C@@H]2[C@H](C)CCCC(C)C)C1 (stereo partly drawn) [E0046]
- pKa ([1]; pKa): 5.75
- FVII inhib % (Factor VII; [4]): 12.7%
- Final size (nm) [2, 6]: 194 nm
- PDI [2, 6]: 0.116

SMILES: CCCCC/C=C\C/C=C\CCCCCCCCOCC(CN1CCCCC1)OC(=O)COCC(=O)O[C@H]1CC[C@@]2(C)C(=CCC3C2CC[C@@]2(C)C3CC[C@@H]2[C@H](C)CCCC(C)C)C1 (stereo partly drawn) [E0047]
- pKa ([1]; pKa): 5.55
- FVII inhib % (Factor VII; [4]): −3.4%
- Final size (nm) [2, 6]: 112 nm
- PDI [2, 6]: 0.061

SMILES: CCCCC/C=C\C/C=C\CCCCCCCCOCC(CN1CCC[C@@H]1C)OCCOCCO[C@H]1CC[C@@]2(C)C(=CCC3C2CC[C@@]2(C)C3CC[C@@H]2[C@H](C)CCCC(C)C)C1 (stereo partly drawn) [E0048]
- pKa ([1]; pKa): 6.56
- FVII inhib % (Factor VII; [4]): 88.5%
- Final size (nm) [2, 6]: 225 nm
- PDI [2, 6]: 0.115

SMILES: CCCCC/C=C\C/C=C\CCCCCCCCOCC(CN1CCC[C@H]1C)OCCOCCO[C@H]1CC[C@@]2(C)C(=CCC3C2CC[C@@]2(C)C3CC[C@@H]2[C@H](C)CCCC(C)C)C1 (stereo partly drawn) [E0049]
- pKa ([1]; pKa): 6.85
- FVII inhib % (Factor VII; [4]): 78.8%
- Final size (nm) [2, 6]: 237 nm
- PDI [2, 6]: 0.09

SMILES: CCCCC/C=C\C/C=C\CCCCCCCCOCC(CN1CCCC1c1ccccc1)OCCOCCO[C@H]1CC[C@@]2(C)C(=CC[C@H]3[C@@H]4CC[C@H]([C@H](C)CCCC(C)C)[C@@]4(C)CC[C@@H]32)C1 (stereo partly drawn) [E0050]
- pKa ([1]; pKa): 4.9
- FVII inhib % (Factor VII; [3]): −7.2%
- FVII inhib % (Factor VII; [4]): −10.4%
- Final size (nm) [2, 5]: 100 nm
- PDI [2, 5]: 0.21
- Final size (nm) [2, 6]: 103 nm
- PDI [2, 6]: 0.097

SMILES: CCCCC/C=C\C/C=C\CCCCCCCCOC[C@@H](CN1CCC[C@H]1C)OCCOCCO[C@H]1CC[C@@]2(C)C(=CCC3C2CC[C@@]2(C)C3CC[C@@H]2[C@H](C)CCCC(C)C)C1 (stereo partly drawn) [E0052]
- pKa ([1]; pKa): 6.95
- FVII inhib % (Factor VII; dose 1 mg/kg siRNA i.v., lipid/DSPC/CHOL/AVANTI 880150P 50/28/18/4, N/P 3.43): 69.8%
- FVII inhib % (Factor VII; [3]): 98.1%
- Final size (nm) [2, 5]: 100.4 nm
- PDI [2, 5]: 0.185

Source: patent publication US9301923B2, “Lipids, lipid compositions, and methods of using them” (NOVARTIS AG, priority 2009, dated 2016)
